Test results published in patent US11040976B2, “Substrate selective inhibitors of insulin-degrading enzyme (IDE) and uses thereof” (President and Fellows of Harvard College, priority 2015, dated 2021).
Structures can show the parent of a compound that is named as a salt.

target: T1, recombinant human IDE42-1019 (Homo sapiens, UniProt P14735); assay: Protease assay with fluorogenic peptide substrate Mca-[…](Dnp)-OH; assay type: biochemical; conditions: fluorogenic peptide Mca-RPPGFSAFK(Dnp)-OH; apparent IC50 for compounds with submaximal inhibition; read-out: IC50 (μM) Proteolysis
T1 construct: recombinant human IDE42-1019 (R&D Systems); purchased R&D Systems
T1 sequence (P14735 42-1019): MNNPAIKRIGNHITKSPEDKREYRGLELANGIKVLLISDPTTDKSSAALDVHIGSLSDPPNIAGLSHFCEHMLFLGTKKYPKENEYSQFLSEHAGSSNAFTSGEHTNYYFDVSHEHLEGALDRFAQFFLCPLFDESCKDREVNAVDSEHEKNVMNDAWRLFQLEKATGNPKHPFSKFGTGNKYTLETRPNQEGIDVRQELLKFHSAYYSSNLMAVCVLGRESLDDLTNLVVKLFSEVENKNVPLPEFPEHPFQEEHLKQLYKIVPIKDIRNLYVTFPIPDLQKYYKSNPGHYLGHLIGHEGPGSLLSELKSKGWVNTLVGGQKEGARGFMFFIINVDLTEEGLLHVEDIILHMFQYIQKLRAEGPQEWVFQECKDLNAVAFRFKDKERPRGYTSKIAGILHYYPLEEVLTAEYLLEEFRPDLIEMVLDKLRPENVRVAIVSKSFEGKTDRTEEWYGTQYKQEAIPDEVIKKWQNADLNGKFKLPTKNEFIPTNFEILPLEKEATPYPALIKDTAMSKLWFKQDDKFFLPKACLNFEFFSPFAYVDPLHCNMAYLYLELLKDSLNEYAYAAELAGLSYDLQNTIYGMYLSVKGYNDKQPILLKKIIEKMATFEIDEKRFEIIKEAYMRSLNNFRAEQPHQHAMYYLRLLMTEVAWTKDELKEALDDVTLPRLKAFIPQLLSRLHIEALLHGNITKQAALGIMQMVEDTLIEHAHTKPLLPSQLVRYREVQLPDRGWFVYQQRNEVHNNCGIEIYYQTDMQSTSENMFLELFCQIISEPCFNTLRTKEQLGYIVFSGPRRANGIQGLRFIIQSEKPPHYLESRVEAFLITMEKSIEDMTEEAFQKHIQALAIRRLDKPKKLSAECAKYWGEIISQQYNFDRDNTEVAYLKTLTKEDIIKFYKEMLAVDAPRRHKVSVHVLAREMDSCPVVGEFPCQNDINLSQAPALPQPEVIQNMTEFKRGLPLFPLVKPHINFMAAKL
Experimental: The proteases IDE42-1019, recombinant human IDE42-1019 (R&D Systems), neprilysin (R&D), and angiotensin-converting enzyme (R&D) were assayed using the fluorophore/quencher-tagged peptide substrate Mca-[…](Dnp)-OH (SEQ ID NO: 24) (R&D) according to the manufacturer's instructions and using the recommended buffers (fluorophore Mca=(7-methoxycourmarin-4-yl)acetyl and quencher Dnp=2,4-dinitrophenyl). For IDE the recommended buffer is 50 mM Tris pH 7.5, 1 M NaCl. The enzyme mixtures (48 μL) were transferred to a 96-well plate and combined with 2 μL of inhibitor in DMSO solutions, in 3-fold dilution series. The mixtures were allowed to equilibrate for 10 minutes and the enzymatic reaction was started by addition of substrate peptide in assay buffer (50 μL), mixed, and monitored on a fluorescence plate reader (excitation at 320 nm, emission at 405 nm). Similarly, thimet oligopeptidase (R&D) and neurolysin (R&D) were assayed using substrate Mca-PLGPK(Dnp)-OH (SEQ ID NO: 25) (R&D) according to the manufacturer's instructions and using the recommended buffers. Matrix metalloproteinase-1 (R&D) was activated and assayed according to the manufacturer's instructions with substrate Mca-KPLGL-Dpa-AR-NH2 (SEQ ID NO: 20) (R&D) (quencher DPA=N-3-(2,4,dinitrophenyl)-L-2,3-diaminopropionyl). All assay data points were obtained in duplicate.

Going from `Cc1ccccc1S(=O)(=O)NCCc1ccc(-c2cccc(C)c2C)cc1` [J3] to `Cc1ccccc1S(=O)(=O)N1CCC(c2ccc(-c3cccc(C)c3C)cc2)CC1` [J6], the IC50 falls from 2.5 µM to 0.3 µM (8.3-fold).

First: Cc1ccccc1S(=O)(=O)N1CC=C(c2ccc(-c3cccc(C)c3C)cc2)CC1 [J7]
Second: Cc1ccccc1S(=O)(=O)N1CCCCN2C(C1)[C@H](c1ccc(-c3cccc(C)c3C)cc1)[C@H]2CN (stereo partly shown) [JP-8N]
The IC50 of the first is higher: over 100 µM for the first, 0.002 µM for the second. The second is the more potent here.

`Cc1cccc(-c2ccc(N3CCN(C(=O)C4CCCCC4)CC3)cc2)c1C` [J9] and `Cc1cccc(-c2ccc(N3CCN(C(=O)C4CCCC4)CC3)cc2)c1C` [J10] are the same in IC50: 2.5 µM for the first, 2.5 µM for the second.

First: Cc1cccc(-c2ccc(N3CCN(C(=O)CC4CCCCC4)CC3)cc2)c1C [J16]
Second: Cc1cccc(-c2ccc([C@@H]3[C@@H](CO)N4CCCCN(S(=O)(=O)N5CCN(C)CC5)C[C@@H]34)cc2)c1C [JP-S22]
The IC50 of the first is 83-fold higher: 2.5 µM for the first, 0.03 µM for the second.

First: Cc1cccc(-c2ccc(C3CCN(C(=O)c4ccc5nccnc5c4)CC3)cc2)c1C [J17]
Second: CC(=O)Nc1ccc(S(=O)(=O)N2CCCCN3[C@H](CO)[C@@H](c4ccc(-c5cccc(C)c5C)cc4)[C@@H]3C2)c(C)c1 [JP-S12]
The IC50 of the first is 6.7-fold higher: 0.2 µM for the first, 0.03 µM for the second.

First: Cc1cccc(-c2ccc([C@@H]3[C@@H](CN(C)C)N4CCCCN(S(=O)(=O)c5ccccc5C(F)(F)F)C[C@@H]34)cc2)c1C [JP-17-DMA]
Second: Cc1cccc(-c2ccc([C@@H]3[C@@H](CF)N4CCCCN(S(=O)(=O)c5ccccc5C(F)(F)F)C[C@@H]34)cc2)c1C [JP-18 TFA salt]
The IC50 of the first is 10-fold higher: 0.1 µM for the first, 0.01 µM for the second.

Going from `CNC[C@@H]1[C@@H](c2ccc(-c3cccc(C)c3C)cc2)[C@@H]2CN(S(=O)(=O)c3ccccc3C(F)(F)F)CCCCN12` [JP-17-NHMe] to `COC[C@@H]1[C@@H](c2ccc(-c3cccc(C)c3C)cc2)[C@@H]2CN(S(=O)(=O)c3ccccc3C(F)(F)F)CCCCN12` [JP-17-OMe], the IC50 rises from 0.007 µM to 0.05 µM (7.1-fold). The first is the more potent here.

Going from `Cc1ccccc1S(=O)(=O)N1C/C=C\CN2C(C1)[C@H](c1ccc(-c3cccc(Cl)c3C)cc1)[C@H]2CO` (stereo partly shown) [JP-28] to `Cc1cccc(-c2ccc([C@H]3C4CN(S(=O)(=O)c5cccnc5C)C/C=C\CN4[C@@H]3CO)cc2)c1C` (stereo partly shown) [JP-S21], the IC50 rises from 0.003 µM to 0.02 µM (6.7-fold).

Compared with `Cc1cc(O)ccc1-c1ccc([C@@H]2[C@@H](CO)N3CCCCN(S(=O)(=O)c4ccccc4C)C[C@@H]23)cc1` [JP-31], `Cc1cc(F)ccc1-c1ccc([C@@H]2[C@@H](CO)N3CCCCN(S(=O)(=O)c4ccccc4C)C[C@@H]23)cc1` [JP-39] is 3.8-fold lower in IC50: 3 µM for the first, 0.8 µM for the second. The second is the more potent here.

First: Cc1c(Cl)cccc1-c1ccc([C@H]2C3CN(S(=O)(=O)c4ccccc4C(F)(F)F)C/C=C\CN3[C@@H]2CF)cc1 (stereo partly shown) [JP-38]
Second: Cc1cccc(-c2ccc([C@H]3C4CN(S(=O)(=O)c5cn(C)nc5C(F)(F)F)C/C=C\CN4[C@@H]3CO)cc2)c1C (stereo partly shown) [JP-S20]
The IC50 of the first is 2-fold higher: 0.06 µM for the first, 0.03 µM for the second.

Going from `COC[C@@H]1[C@@H](c2ccc(-c3ccc(F)c(C)c3C)cc2)[C@@H]2CN(S(=O)(=O)c3ccccc3C(F)(F)F)CCCCN12` [JP-41-OMe] to `Cc1c(F)ccc(-c2ccc([C@@H]3[C@@H](CO)N4CCCCN(S(=O)(=O)c5ccccc5C(F)(F)F)C[C@@H]34)cc2)c1C` [JP-41], the IC50 falls from 0.09 µM to 0.03 µM (3-fold). The second is the more potent here.

Going from `Cc1c(F)ccc(-c2ccc([C@@H]3[C@@H](CO)N4CCCCN(S(=O)(=O)c5cnc(C)n5C)C[C@@H]34)cc2)c1C` [JP-42] to `Cc1c(F)ccc(-c2ccc([C@@H]3[C@@H](CO)N4CCCCN(S(=O)(=O)c5nccn5C)C[C@@H]34)cc2)c1C` [JP-43], the IC50 falls from 0.008 µM to 0.004 µM (2-fold).

First: COC[C@@H]1[C@@H](c2ccc(-c3ccc(F)c(C)c3C)cc2)[C@@H]2CN(S(=O)(=O)c3nccn3C)CCCCN12 [JP-43-OMe]
Second: Cc1cccc(-c2ccc([C@@H]3[C@@H](CO)N4CCCCN(S(=O)(=O)c5nccn5C)C[C@@H]34)cc2)c1C [JP-S23]
The IC50 of the first is 250-fold higher: 0.15 µM for the first, 0.0006 µM for the second.

Compared with `COc1cc(N)ccc1S(=O)(=O)N1CCCCN2[C@H](CO)[C@@H](c3ccc(-c4cccc(C)c4C)cc3)[C@@H]2C1` [JP-S5], `Cc1ccccc1S(=O)(=O)N1CCCCN2[C@H](CO)[C@@H](c3ccc(-c4cccc(C)c4C)cc3)[C@@H]2C1` [K9] is 250-fold lower in IC50: 0.5 µM for the first, 0.002 µM for the second.

Compared with `COC[C@@H]1[C@@H](c2ccc(-c3cccc(C)c3C)cc2)[C@@H]2CN(S(=O)(=O)c3ccnn3C(C)C)CCCCN12` [JP-S10-OMe], `Cc1cccc(-c2ccc([C@@H]3[C@@H](CO)N4CCCCN(S(=O)(=O)c5ccnn5C(C)C)C[C@@H]34)cc2)c1C` [JP-S10] is lower in IC50: over 0.2 µM for the first, 0.015 µM for the second.

Compared with `Cc1cc2c(cc1S(=O)(=O)N1CCCCN3[C@H](CO)[C@@H](c4ccc(-c5cccc(C)c5C)cc4)[C@@H]3C1)OCC(=O)N2` [JP-S13], `Cc1cc(S(=O)(=O)N2CCCCN3[C@H](CO)[C@@H](c4ccc(-c5cccc(C)c5C)cc4)[C@@H]3C2)n(C)n1` [JP-S25] is 5-fold lower in IC50: 0.1 µM for the first, 0.02 µM for the second.

Compared with `Cc1cccc(-c2ccc([C@@H]3[C@@H](CO)N4CCCCN(S(=O)(=O)c5ccc(F)cc5C(F)(F)F)C[C@@H]34)cc2)c1C` [JP-S15], `Cc1cccc(-c2ccc([C@@H]3[C@@H](CO)N4CCCCN(S(=O)(=O)c5ccnn5C)C[C@@H]34)cc2)c1C` [JP-S24] is 5-fold lower in IC50: 0.05 µM for the first, 0.01 µM for the second.

Going from `CCCn1nccc1S(=O)(=O)N1C/C=C\CN2C(C1)[C@H](c1ccc(-c3cccc(C)c3C)cc1)[C@H]2CO` (stereo partly shown) [JP-S16] to `CCn1ncc(S(=O)(=O)N2C/C=C\CN3C(C2)[C@H](c2ccc(-c4cccc(C)c4C)cc2)[C@H]3CO)c1C` (stereo partly shown) [JP-S19], the IC50 rises from 0.03 µM to 0.09 µM (3-fold). The first is the more potent here.

Going from `Cc1cccc(-c2ccc([C@H]3C4CN(S(=O)(=O)c5cnc6n5CCCCC6)C/C=C\CN4[C@@H]3CO)cc2)c1C` (stereo partly shown) [JP-S17] to `Cc1cccc(-c2ccc([C@H]3C4CN(S(=O)(=O)c5cnc(C)n5C)C/C=C\CN4[C@@H]3CO)cc2)c1C` (stereo partly shown) [JP-S18], the IC50 falls from 0.09 µM to 0.002 µM (45-fold).

Going from `COC[C@@H]1[C@@H](c2ccc(-c3cccc(C)c3C)cc2)C2CN(S(=O)(=O)c3cnc(C)n3C)C/C=C\CN21` (stereo partly shown) [JP-S18-OMe] to `COC[C@@H]1[C@@H](c2ccc(-c3cccc(C)c3C)cc2)[C@@H]2CN(S(=O)(=O)c3ccc[n+](C)c3C)CCCCN12` [JP-S21-diMe], the IC50 rises from 0.02 µM to over 0.2 µM. The first is the more potent here.

First: COC(=O)c1ccc(S(=O)(=O)N2CCCCN3C(C2)[C@H](c2ccc(-c4cccc(C)c4C)cc2)[C@H]3CO)n1C (stereo partly shown) [JP-S27]
Second: COc1cccc(-c2ccc([C@@H]3[C@@H](CO)N4CCCCN(S(=O)(=O)c5ccccc5C)C[C@@H]34)cc2)c1 [K3]
The IC50 of the first is higher: over 5 µM for the first, 0.4 µM for the second.

First: Cc1ccccc1S(=O)(=O)N1CCCCN2[C@H](CO)[C@@H](c3ccccc3)[C@@H]2C1 [K2]
Second: Cc1cc(C)cc(-c2ccc([C@@H]3[C@@H](CO)N4CCCCN(S(=O)(=O)c5ccccc5C)C[C@@H]34)cc2)c1 [K10]
The IC50 of the first is higher: over 100 µM for the first, 0.1 µM for the second. The second is the more potent here.

`Cc1ccccc1S(=O)(=O)N1CCCCN2[C@H](CO)[C@@H](c3ccc(-c4ccc5c(c4)OCO5)cc3)[C@@H]2C1` [K5] was tested, and the IC50 was 2.5 µM.

same assay, conditions: fluorogenic peptide Mca-RPPGFSAFK(Dnp)-OH; plateau at high inhibitor concentration; read-out: Imax (%) Proteolysis (inhibition maximum)

First: COc1cccc(-c2ccc([C@H]3C4CN(S(=O)(=O)c5ccccc5C)CCCCN4[C@@H]3CO)cc2)c1 (stereo partly shown) [K3]
Second: Cc1ccccc1S(=O)(=O)N1CCCCN2C(C1)[C@H](c1ccc(-c3cccc(O)c3)cc1)[C@H]2CO (stereo partly shown) [K8]
The Emax of the first is lower: 65% for the first, 100% for the second.

Compared with `Cc1ccc(-c2ccc([C@H]3C4CN(S(=O)(=O)c5ccccc5C)CCCCN4[C@@H]3CO)cc2)cc1C` (stereo partly shown) [K4], `Cc1ccccc1S(=O)(=O)N1CCCCN2C(C1)[C@H](c1ccc(-c3cccc(C)c3C)cc1)[C@H]2CO` (stereo partly shown) [K9] is lower in Emax: 72% for the first, 65% for the second.

First: Cc1ccccc1S(=O)(=O)N1CCCCN2C(C1)[C@H](c1ccc(-c3ccc4c(c3)OCO4)cc1)[C@H]2CO (stereo partly shown) [K5]
Second: Cc1ccccc1S(=O)(=O)N1CCCCN2C(C1)[C@H](c1ccc(-c3ccccc3)cc1)[C@H]2CO (stereo partly shown) [K7]
The Emax of the first is higher: 100% for the first, 65% for the second.

With `Cc1cc(C)cc(-c2ccc([C@H]3C4CN(S(=O)(=O)c5ccccc5C)CCCCN4[C@@H]3CO)cc2)c1` (stereo partly shown) [K10] the Emax was 72%.
